Where two headings read alike, the source gives them in different places.
How the values were obtained:
[1] = tested on: Trypanosoma cruzi (intracellular amastigotes); test: In vitro anti-parasitic assay, T. cruzi (β-galactosidase/CPRG readout); conditions: TULAHUEN, MRC-5 SV2, read-out: IC50 T. cruzi
[2] = tested on: human lung fibroblasts (MRC-5); test: In vitro cytotoxicity assay, MRC-5SV2 cells (resazurin); format: cell-based; conditions: for IC50: Homo sapiens, MRC5, 72 h, cytotoxicity, lung fibroblast, 3 days
Description: (§1) Briefly, 1.5 × 10^5 cells/mL cells were cultured with compound dilutions at 37 °C and with 5% CO2. Cell growth was compared to untreated-control wells (100% cell growth) and medium-control wells (0% cell growth). After 3 days incubation, cell viability was assessed fluorometrically after addition of 50 μL resazurin per well. […] The results were expressed as % reduction in cell growth/viability compared to control wells and an IC50 value was determined.

[3] = tested on: Leishmania infantum (intracellular amastigotes); test: In vitro anti-Leishmania assay in primary peritoneal mouse macrophages (Giemsa, microscopy); conditions: Macrophage, 120 h, read-out: IC50 L. infantum
[4] = tested on: T. cruzi, T. b. brucei, T. b. rhodesiense and L. infantum; test: Antikinetoplastid activity, whole panel, verdict in words; conditions: compounds lacking the chalcone moiety
[5] = tested on: Trypanosoma brucei brucei (blood stream trypomastigotes); test: Drug susceptibility resazurin assay, T. b. brucei; conditions: 72 h, read-out: IC50 T. b. brucei
[6] = tested on: Trypanosoma brucei rhodesiense (blood stream trypomastigotes); test: Drug susceptibility resazurin assay, T. b. rhodesiense; conditions: 72 h, read-out: IC50 T. b. rhodesiense
[7] = tested on: primary mouse macrophages (PMMs); test: In vitro cytotoxicity against primary mouse macrophages; format: cell-based; conditions: for IC50: Macrophage, cytotoxicity, primary mouse macrophages
[8] = In vitro cytotoxicity assay, MRC-5SV2 cells (resazurin); format: cell-based, human; conditions: human, MRC-5SV2 cells (human lung fibroblasts); cytotoxicity; read-out: CC50 against MRC-5
Description: as §1

[9] = tested on: promastigotes of L. aethiopica; conditions: cited from earlier work
[10] = tested on: amastigotes of L. aethiopica; design: method as in Bekhit et al. [2015]; conditions: ref Bekhit et al. [2015]; cited from earlier work
T. b. rhodesiense [11] = tested on: T. b. rhodesiense; design: method as in Bhambra et al. [2017]; conditions: ref Bhambra et al. [2017]; read-out: IC50 against T. b. rhodesiense; cited from earlier work
L. amazonensis = tested on: L. amazonensis; design: method as in Bernardino et al. [2006]; conditions: ref Bernardino et al. [2006]; read-out: IC50 against L. amazonensis; cited from earlier work
T. b. rhodesiense [12] = tested on: T. b. rhodesiense; design: method as in Agarwal et al. [2024]; conditions: imidazo[1,2-a]pyridine-chalcones; ref Agarwal et al. [2024]; read-out: IC50 against T. b. rhodesiense; cited from earlier work
L. panamensis = tested on: L. panamensis; design: method as in García et al. [2018]; conditions: ref García et al. [2018]; read-out: EC50 against L. panamensis; cited from earlier work
T. cruzi = tested on: T. cruzi; design: method as in García et al. [2018]; conditions: ref García et al. [2018]; read-out: EC50 against T. cruzi; cited from earlier work

SMILES	IC50 [1]	IC50 [2]	IC50 [3]	IC50 [5]	IC50 [6]	IC50 [7]	other results
O=C(Cn1ccnc1[N+](=O)[O-])NCc1ccccc1 [Benznidazole, reference compound]	1.35 µM						
O=C(O)c1cn(-c2ccccc2)nc1-c1ccccc1 [Compound 5, 1,3-diphenyl-1H-pyrazole-4-carboxylic acid]	> 64 µM	33 µM	> 64 µM	> 64 µM	> 64 µM	> 64 µM	antikinetoplastid activity, in words [4]: inactive
CC(=O)c1ccc(NC(=O)c2cn(-c3ccccc3)nc2-c2ccccc2)cc1 [Compound 7, N-(4-acetylphenyl)-1,3-diphenyl-1H-pyrazole-4-carboxamide]	> 64 µM	14.4 µM	> 64 µM	> 64 µM	> 64 µM	> 64 µM	melting point: 149 to 150 °C; antikinetoplastid activity, in words [4]: inactive
O=C(C=Cc1ccccc1)c1ccc(NC(=O)c2cn(-c3ccccc3)nc2-c2ccccc2)cc1 [Compound 9a, N-(4-cinnamoylphenyl)-1,3-diphenyl-1H-pyrazole-4-carboxamide]	> 53.2 µM	> 64 µM	7.16 ± 1.88 µM	0.77 ± 0.27 µM	0.96 ± 0.49 µM	32 µM	melting point: 160 to 161 °C; cytotoxicity against human lung fibroblasts (MRC-5), in words [2]: non-cytotoxic; cytotoxicity against primary mouse macrophages (PMMs), in words [7]: non-cytotoxic
Cc1ccccc1/C=C/C(=O)c1ccc(NC(=O)c2cn(-c3ccccc3)nc2-c2ccccc2)cc1 [Compound 9b, (E)-1,3-diphenyl-N-(4-(3-(o-tolyl)acryloyl)phenyl)-1H-pyrazole-4-carboxamide]	> 64 µM	> 64 µM	18.7 ± 9.18 µM	0.51 ± 0.06 µM	0.54 ± 0.24 µM	> 36 µM	cytotoxicity against human lung fibroblasts (MRC-5), in words [2]: non-cytotoxic; cytotoxicity against primary mouse macrophages (PMMs), in words [7]: non-cytotoxic
COc1cccc(/C=C/C(=O)c2ccc(NC(=O)c3cn(-c4ccccc4)nc3-c3ccccc3)cc2)c1 [Compound 9c, (E)-N-(4-(3-(3-methoxyphenyl)acryloyl)phenyl)-1,3-diphenyl-1H-pyrazole-4-carboxamide]		10.7 µM					CC50 at 3 days [8]: 10.7 µM
COc1ccc(/C=C/C(=O)c2ccc(NC(=O)c3cn(-c4ccccc4)nc3-c3ccccc3)cc2)cc1 [Compound 9d, (E)-N-(4-(3-(4-methoxyphenyl)acryloyl)phenyl)-1,3-diphenyl-1H-pyrazole-4-carboxamide]	> 64 µM	> 64 µM	31.8 ± 19.1 µM	1.64 ± 0.12 µM	0.69 ± 0.31 µM	> 64 µM	melting point: 174 to 175 °C
O=C(/C=C/c1ccc(Br)cc1)c1ccc(NC(=O)c2cn(-c3ccccc3)nc2-c2ccccc2)cc1 [Compound 9e, (E)-N-(4-(3-(4-bromophenyl)acryloyl)phenyl)-1,3-diphenyl-1H-pyrazole-4-carboxamide]	> 64 µM	34.9 µM	> 46.8 µM	1.13 ± 0.63 µM	1.37 ± 0.02 µM	> 64 µM	
O=C(/C=C/c1ccccc1Cl)c1ccc(NC(=O)c2cn(-c3ccccc3)nc2-c2ccccc2)cc1 [Compound 9f, (E)-N-(4-(3-(2-chlorophenyl)acryloyl)phenyl)-1,3-diphenyl-1H-pyrazole-4-carboxamide]	13.4 ± 4.95 µM	> 64 µM	18.7 ± 9.18 µM	0.6 ± 0.33 µM	0.81 ± 0.09 µM	> 64 µM	
O=C(/C=C/c1cccc(Cl)c1)c1ccc(NC(=O)c2cn(-c3ccccc3)nc2-c2ccccc2)cc1 [Compound 9g, (E)-N-(4-(3-(3-chlorophenyl)acryloyl)phenyl)-1,3-diphenyl-1H-pyrazole-4-carboxamide]		6.2 µM					CC50 at 3 days [8]: 6.2 µM
O=C(/C=C/c1cccc(F)c1)c1ccc(NC(=O)c2cn(-c3ccccc3)nc2-c2ccccc2)cc1 [Compound 9h, (E)-N-(4-(3-(3-fluorophenyl)acryloyl)phenyl)-1,3-diphenyl-1H-pyrazole-4-carboxamide]	> 64 µM	24.8 µM	21 ± 11 µM	6.36 ± 0.11 µM	1.56 ± 0.11 µM	> 48 µM	
O=C(/C=C/c1ccc(F)cc1)c1ccc(NC(=O)c2cn(-c3ccccc3)nc2-c2ccccc2)cc1 [Compound 9i, (E)-N-(4-(3-(4-fluorophenyl)acryloyl)phenyl)-1,3-diphenyl-1H-pyrazole-4-carboxamide]	> 54.2 µM	> 64 µM	> 37.4 µM	0.78 ± 0.26 µM	1.12 ± 0.74 µM	> 64 µM	
O=C(/C=C/c1ccc(Cl)c(Cl)c1)c1ccc(NC(=O)c2cn(-c3ccccc3)nc2-c2ccccc2)cc1 [Compound 9j, (E)-N-(4-(3-(3,4-dichlorophenyl)acryloyl)phenyl)-1,3-diphenyl-1H-pyrazole-4-carboxamide]	46.1 µM	22.3 µM	> 64 µM	4.63 µM	4.52 µM	> 64 µM	melting point: 200 to 201 °C
O=C(/C=C/c1cccc([N+](=O)[O-])c1)c1ccc(NC(=O)c2cn(-c3ccccc3)nc2-c2ccccc2)cc1 [Compound 9k, (E)-N-(4-(3-(3-nitrophenyl)acryloyl)phenyl)-1,3-diphenyl-1H-pyrazole-4-carboxamide]	> 64 µM	19.4 µM	45.2 µM	6.69 µM	8.22 µM	> 64 µM	
O=C(/C=C/c1cccs1)c1ccc(NC(=O)c2cn(-c3ccccc3)nc2-c2ccccc2)cc1 [Compound 9l, (E)-1,3-diphenyl-N-(4-(3-(thiophen-2-yl)acryloyl)phenyl)-1H-pyrazole-4-carboxamide]	> 64 µM	39.2 µM	> 53.5 µM	13.2 ± 19 µM	2.7 ± 0.03 µM	> 64 µM	melting point: 210 to 211 °C
O=C(/C=C/c1cccnc1)c1ccc(NC(=O)c2cn(-c3ccccc3)nc2-c2ccccc2)cc1 [Compound 9m, (E)-1,3-diphenyl-N-(4-(3-(pyridin-3-yl)acryloyl)phenyl)-1H-pyrazole-4-carboxamide]		0.26 µM					melting point: 198 to 199 °C; CC50 at 3 days [8]: 0.26 µM
O=C(/C=C/c1ccc2c(c1)OCO2)c1ccc(NC(=O)c2cn(-c3ccccc3)nc2-c2ccccc2)cc1 [Compound 9n, (E)-N-(4-(3-(benzo[d][1,3]dioxol-5-yl)acryloyl)phenyl)-1,3-diphenyl-1H-pyrazole-4-carboxamide]	> 64 µM	64 µM	> 57.4 µM	3.44 ± 2.88 µM	0.46 ± 0.07 µM	> 64 µM	melting point: 182 to 183 °C; cytotoxicity against human lung fibroblasts (MRC-5), in words [2]: non-cytotoxic; cytotoxicity against primary mouse macrophages (PMMs), in words [7]: non-cytotoxic
CC(=O)C(C1=NN(C(C)=O)C(c2cn(-c3ccc(Br)cc3)nc2-c2ccc([N+](=O)[O-])cc2)S1)c1ccccc1 (stereo not drawn) [III]							IC50 against promastigotes of L. aethiopica ([9]; ref Bekhit et al. [2015]): 0.0142 µg/mL; IC50 against amastigotes of L. aethiopica [10]: 0.13 µg/mL
Cc1ccc(-n2cc(/C=C/C(=O)c3cccs3)c(-c3ccccc3)n2)cc1 [II]							EC50 against promastigotes of L. aethiopica ([9]; ref Bekhit et al. [2014]): 0.079 µg/mL
O=C(/C=C/c1cccnc1)c1ccccc1Br [IV]							IC50 (T. b. rhodesiense [11]): 0.38 µM
O=[N+]([O-])c1ccc(N/N=C/c2cnn(-c3ccc(Br)cc3)c2)cc1 [I]							IC50 (L. amazonensis): 50 µM
CCCCCCCCCCCCCCCCOP(=O)([O-])OCC[N+](C)(C)C [Miltefosine, reference compound]			7.13 µM				
Cc1ccc(C(=O)Nc2ccc(S(=O)(=O)O)c3cc(S(=O)(=O)O)cc(S(=O)(=O)O)c23)cc1NC(=O)c1cccc(NC(=O)Nc2cccc(C(=O)Nc3cc(C(=O)Nc4ccc(S(=O)(=O)O)c5cc(S(=O)(=O)O)cc(S(=O)(=O)O)c45)ccc3C)c2)c1 [Suramine, reference compound]				0.04 µM	0.05 µM		
O=C(/C=C/c1ccc(Br)cc1)c1ccc(NC(=O)c2cn3ccccc3n2)cc1 [VI]							IC50 (T. b. rhodesiense [12]): 1.13 µM
CC(CCCCCCC[n+]1ccn(C)c1)Oc1ccc(C(=O)/C=C/c2ccco2)cc1 (stereo not drawn) [V]							EC50 (L. panamensis): 0.78 µM; EC50 (T. cruzi): 0.66 µM

— paper PMC11978679, “Pyrazolyl amide-chalcones conjugates: Synthesis and antikinetoplastid activity” (Naunyn-Schmiedeberg's Archives of Pharmacology, 2024)
